Values of other authors as cited in patent publication US20120003311A9, “METHOD FOR CONTROLLED RELEASE OF AN ACID-UNSTABLE PHYSIOLOGICALLY ACTIVE SUBSTANCE” (EISAI R&D MANAGEMENT CO., LTD., priority 2004, published 2012).

How the values were obtained:
[1] = descending colon vs jejunum

Structure (SMILES)	half-life at pH 7 [hours]	absorption rate in the descending colon as percentage of that of the jejunum [1] [%]
COc1ccnc(C[S+]([O-])c2nc3cc(OC(F)F)ccc3[nH]2)c1OC (centres unmarked) [pantoprazole]	39	–
COCCCOc1ccnc(C[S+]([O-])c2nc3ccccc3[nH]2)c1C (centres unmarked) [rabeprazole sodium]	–	≤ 20
